Source: US20210318318A1, “Kinase Activity In Tumors” (Institute For Cancer Research d/b/a The Research Institute …, priority 2018, published 2021)

What was measured:
Assay type in all cases: cell-based, human
[1] = tested on: OVSAHO; test: Short-term growth assay (CellTiter-Glo cell viability), kinase inhibitors
Procedure: (§1) Cell viability was determined by Cell Titer Glo analysis.
(§2) To explore the therapeutic potential of the HGSOC kinome signature, a detailed molecular analysis of protein levels/activity, growth and survival functions was carried out in a panel of recently validated HGSOC cell lines (Coscia et al., Nat. Commun., 2016, 7, 12645) that harbor commonly encountered HGSOC mutations and genetic rearrangements (see, FIG. 5A).
(§3) For short-term growth assays, 3000-5000 cells were plated per well in 96-well plates and allowed to adhere and equilibrate overnight. Drug was added the following morning and after 120 hours of drug treatment, cell viability was assessed using the CellTiter-Glo Luminescent cell viability assay according to manufacturer (Promega). Students t tests were performed for statistical analyses and p values ≤0.05 were considered significant. For colony formation assays, cells were plated in 24-well dishes (3000-5000 cells per well) and incubated overnight before continuous drug treatment for 14 days, with drug and media replaced twice weekly. At the end of treatment, cells were rinsed with PBS and fixed with chilled methanol for 10 minutes at −20° C. Methanol was removed by aspiration, and cells were stained with 0.5% crystal violet in 20% methanol for 20 minutes at room temperature, washed with distilled water, and scanned.

[2] = tested on: Kuramochi; test: as above
Procedure: as §1, §2, §3

[3] = tested on: SNU-119; test: as above
Procedure: as §1, §2, §3

[4] = tested on: OVCAR4; test: as above
Procedure: as §1, §2, §3

[5] = tested on: OVCAR4 cells; test: Drug growth inhibition in cells depleted of dark kinases by siRNA (Cell Titer Glo); settings: increasing doses of drug
Procedure: OVCAR4 cells were transfected with control nontargeting or dark kinase siRNAs and treated with escalating doses of appropriate drugs.
To explore if blocking dark kinases AAK1, STK38 or MRCKA activity in combination with current therapies improves drug efficacy, OVCAR4 cells depleted of AAK1, STK38 or MRCKA were treated with increasing doses of carboplatin, olaparib, JQ1, or a variety of kinase inhibitors in clinical trials for HGSOC.
siRNA transfections were performed using 25 nM siRNA duplex and the reverse transfection protocol. 3000-5000 cells per well were added to 96 well plates with media containing the siRNA and transfection reagent (Lipofectamine RNAiMax) according to the manufacturer's instructions. In experiments where inhibitors were used, the inhibitor was added at the time of transfection. Cells were allowed to grow for 72-120 hours post-transfection prior to CellTiter Glo (Promega) analysis. Two-to-three independent experiments were performed with each cell line and siRNA. Students t tests were performed for statistical analyses and p values ≤0.05 were considered significant. For western blot studies, the same procedure was performed with volumes and cell numbers proportionally scaled to a 60 mm or 10 cm dish, and cells were collected 24-72 hours post-transfection. siRNA product numbers and manufacturers are listed in Table 5.

[6] = tested on: COV362; test: Short-term growth assay (CellTiter-Glo cell viability), kinase inhibitors
Procedure: as §1
COV362 cells were treated with increasing concentrations of A-674563 and cell viability assessed by Cell Titer Glo according to manufacturer's instructions. Data represent the mean of six replicates.
as §2, §3

NC(=O)Nc1cc(-c2cccc(F)c2)sc1C(=O)N[C@H]1CCCNC1 [AZD7762]
Kinase inhibition profile of HGSOC cells (growth inhibition, Cell Titer Glo) ([1]; drug 0.312 uM): 0.7988 | Kinase inhibition profile of HGSOC cells (growth inhibition, Cell Titer Glo) ([2]; drug 0.312 uM): 0.663 | Kinase inhibition profile of HGSOC cells (growth inhibition, Cell Titer Glo) ([3]; drug 0.312 uM): 0 | Kinase inhibition profile of HGSOC cells (growth inhibition, Cell Titer Glo) ([4]; drug 0.312 uM): 0 | growth inhibition by drug with MRCKA knockdown relative to non-targeting control siRNA [5]: enhanced growth inhibition | Kinase inhibition profile of HGSOC cells (growth inhibition, Cell Titer Glo) ([6]; drug 0.312 uM): 0.05872

COc1cc(Nc2ncc3c(n2)-c2ccc(Cl)cc2C(c2c(F)cccc2OC)=NC3)ccc1C(=O)O [Alisertib]
Kinase inhibition profile of HGSOC cells (growth inhibition, Cell Titer Glo) ([1]; drug 0.312 uM): 0.5387 | Kinase inhibition profile of HGSOC cells (growth inhibition, Cell Titer Glo) ([2]; drug 0.312 uM): 0.5199 | Kinase inhibition profile of HGSOC cells (growth inhibition, Cell Titer Glo) ([3]; drug 0.312 uM): 1.057 | Kinase inhibition profile of HGSOC cells (growth inhibition, Cell Titer Glo) ([4]; drug 0.312 uM): 0.1016 | Kinase inhibition profile of HGSOC cells (growth inhibition, Cell Titer Glo) ([6]; drug 0.312 uM): 1.075

CCOc1ccn(-c2ccc(F)cc2)c(=O)c1C(=O)Nc1ccc(Oc2ccnc(N)c2Cl)c(F)c1 [BMS777607]
Kinase inhibition profile of HGSOC cells (growth inhibition, Cell Titer Glo) ([1]; drug 1.2 uM): 1.102 | Kinase inhibition profile of HGSOC cells (growth inhibition, Cell Titer Glo) ([2]; drug 1.2 uM): 1.007 | Kinase inhibition profile of HGSOC cells (growth inhibition, Cell Titer Glo) ([3]; drug 1.2 uM): 1.028 | Kinase inhibition profile of HGSOC cells (growth inhibition, Cell Titer Glo) ([4]; drug 1.2 uM): 1.062 | Kinase inhibition profile of HGSOC cells (growth inhibition, Cell Titer Glo) ([6]; drug 1.2 uM): 0.9079

COc1cc2c(Oc3ccc4[nH]c(C)cc4c3F)ncnc2cc1OCCCN1CCCC1 [Cederinib]
Kinase inhibition profile of HGSOC cells (growth inhibition, Cell Titer Glo) ([1]; drug 1.2 uM): 1.089 | Kinase inhibition profile of HGSOC cells (growth inhibition, Cell Titer Glo) ([2]; drug 1.2 uM): 0.9466 | Kinase inhibition profile of HGSOC cells (growth inhibition, Cell Titer Glo) ([3]; drug 1.2 uM): 0.6258 | Kinase inhibition profile of HGSOC cells (growth inhibition, Cell Titer Glo) ([4]; drug 1.2 uM): 1.089 | Kinase inhibition profile of HGSOC cells (growth inhibition, Cell Titer Glo) ([6]; drug 1.2 uM): 0.9246

CCS(=O)(=O)N1CCN(c2ccc(Nc3ncc(C(N)=O)c(NC4CC4)n3)cc2)CC1 [Cerdulatinib]
Kinase inhibition profile of HGSOC cells (growth inhibition, Cell Titer Glo) ([1]; drug 2.5 uM): 1 | Kinase inhibition profile of HGSOC cells (growth inhibition, Cell Titer Glo) ([2]; drug 2.5 uM): 1 | Kinase inhibition profile of HGSOC cells (growth inhibition, Cell Titer Glo) ([3]; drug 2.5 uM): 0.8395 | Kinase inhibition profile of HGSOC cells (growth inhibition, Cell Titer Glo) ([4]; drug 2.5 uM): 0.5051 | Kinase inhibition profile of HGSOC cells (growth inhibition, Cell Titer Glo) ([6]; drug 2.5 uM): −0.008256

CS(=O)(=O)N1CCN(Cc2cc3nc(-c4cccc5[nH]ncc45)nc(N4CCOCC4)c3s2)CC1 [GDC-0941]
growth inhibition by drug combined with knockdown of STK38 [5]: improved growth inhibition

CCc1cc(Nc2nccc(-c3c(-c4ccc(OC)c(C(=O)Nc5c(F)cccc5F)c4)nc4ccccn34)n2)c(OC)cc1N1CCC(N2CCN(S(C)(=O)=O)CC2)CC1 [GSK529A]
Kinase inhibition profile of HGSOC cells (growth inhibition, Cell Titer Glo) ([1]; drug 5 uM): 0.6574 | Kinase inhibition profile of HGSOC cells (growth inhibition, Cell Titer Glo) ([2]; drug 5 uM): 0.9732 | Kinase inhibition profile of HGSOC cells (growth inhibition, Cell Titer Glo) ([3]; drug 5 uM): 0.6579 | Kinase inhibition profile of HGSOC cells (growth inhibition, Cell Titer Glo) ([4]; drug 5 uM): 0.5226 | Kinase inhibition profile of HGSOC cells (growth inhibition, Cell Titer Glo) ([6]; drug 5 uM): 0.9731

Cc1sc2c(c1C)C(c1ccc(Cl)cc1)=N[C@@H](CC(=O)OC(C)(C)C)c1nnc(C)n1-2 [JQ1]
growth inhibition by drug combined with depletion of AAK1 [5]: enhanced growth inhibition | growth inhibition by drug with MRCKA knockdown relative to non-targeting control siRNA [5]: enhanced growth inhibition

CNc1ncc2cc(-c3cc(NC(=O)NCCC(C)(C)C)c(F)cc3C)c(C)nc2n1 [LY300]
Kinase inhibition profile of HGSOC cells (growth inhibition, Cell Titer Glo) ([1]; drug 1.2 uM): 0.166 | Kinase inhibition profile of HGSOC cells (growth inhibition, Cell Titer Glo) ([2]; drug 1.2 uM): 0.09151 | Kinase inhibition profile of HGSOC cells (growth inhibition, Cell Titer Glo) ([3]; drug 1.2 uM): 0.6599 | Kinase inhibition profile of HGSOC cells (growth inhibition, Cell Titer Glo) ([4]; drug 1.2 uM): 0.6062 | Kinase inhibition profile of HGSOC cells (growth inhibition, Cell Titer Glo) ([6]; drug 1.2 uM): 0.2612
